Data set [1] can be described thus: Nanoparticle characterization: hydrodynamic diameter, zeta potential, stability. Conditions: CR5 with peptide, 30:1 polymer:peptide weight ratio. Format: physicochemical. How it is done: (§1) PBAE polymer and peptide were separately dissolved in pH 7.4 150-mM PBS and combined at a 1:1 volume ratio. Final concentrations of the components were 6-ng/μL peptide and 180-ng/μL polymer (30:1 polymer: peptide weight ratio). Polymer and peptide nanoparticles were allowed to self-assemble at room temperature for 10 minutes. For characterization, nanoparticles were diluted 1:5 in PBS. Hydrodynamic diameter and zeta potential were measured using a Malvern Zetasizer Pro (Malvern Panalytical, Malvern, UK). Stability was assessed by incubating nanoparticles at RT up to 45 minutes then measuring hydrodynamic diameter over 45 minutes. Nanoparticles were made immediately prior to each experiment.

The subject of data set [2] is adenylate cyclase-cAMP. In words: cAMP assay in human enteroid monolayers exposed to FSK. It counts as cell-based. As to conditions: nanoparticles with 250-nM peptide, FSK (10 μM) 45 min, CP-2 vs N3SP-1Δ7. How it is done: Human jejunal enteroid monolayers on Transwell inserts (Corning Cat #: 3470) were differentiated for 5 days and then in serum-free media were exposed apically to nanoparticles containing either 250-nM CP-2 or N3SP-1Δ7. The peptide and polymer in PBS were prepared just before use, allowed to combine for 10 min before being added to the apical surface of enteroid monolayers at room temperature. Monolayers were incubated for 4 hours at 37° C., 5% CO2 incubator before the nanoparticles were removed, then monolayers were washed 3 times with cold PBS and changed to differentiation media and moved to a 37° C. incubator. Differentiation media was removed 24 hours later and washed twice with CMGF-media (Advanced DMEM/F12 with 10-mM Hepes, 10-mM GlutaMax, and 1000 Units/mL Penn/Strep). Next, 100 μL of CMGF-media containing 10-mM Theophylline, 50-μM Cilostazol and 50-μM Rolipram was added to the apical and basolateral surfaces followed by exposure to FSK (10 μM) at 37° C., 5% CO2, for 45 min before apical and basolateral media were collected and cells were lysed in 200-μL 0.1 M HCl for cAMP analysis. CAMP in apical, basolateral, and cells was determined using nonradioactive, CAMP-ELISA kits from ENZO Life Sciences (Loerrach, German), using the acetylation protocol in which the yellow-colored product is inversely proportional to the amount of CAMP present in the sample.
In general terms: Cyclic AMP is a second messenger, typically raised through Gs and lowered through Gi signalling.

Data set [3] relates to NHE3. In words: NHE3 activity in differentiated human enteroid monolayers after nanoparticle delivery of peptide. It counts as cell-based. Conditions: nanoparticles (250 nM) 18 h, FSK exposure, n=4. How it is done: NHE3 activity in PS120, Caco-2/BBe cells and human jejunal enteroids was determined fluorometrically (Photon Technologies Incorporated) using the intracellular pH sensitive dye BCECF, as reported (Levine et al., 1993; Sarker et al., 2008; Foulke-Abel et al., 2020). PS120/HA3-NHE3 cells were seeded on glass cover slips and studied at 70-80% confluency. Caco-2/BBe/HA3-NHE3 cells were grown to confluency on Transwell inserts (polyester, 0.4-μm pore size) and studied approximately 14-16 days pod. Human duodenal enteroid monolayers on Transwell inserts were differentiated for 5 days in the absence of Wnt3a, R-spondin, and noggin as described (Noel et al., 2017; Staab et al., 2020).
Rates of Na^+/H^+ exchange were determined as Na^+-dependent alkalinization in the presence of 50-μM HOE-694 (to inhibit all other plasma membrane NHE isoforms) in HCO3-free solutions, with internal calibration using the nigericin/K+ method, as previously described (Sarker et al., 2008; Foulke-Abel et al., 2020). Kinetic analysis was used for PS120 cell studies (expressed as Vmax) and initial rates (ΔpH/min) for Caco-2/BBe cells, mouse intestine in vitro, and human enteroids. For in vitro mouse jejunal transport studies, NHE3 activity (in the presence of 50-μM HOE-694) was measured using SNARF-4F at 37° C. in a perfusion chamber using a two-photon microscope (Olympus FV1000) and 25× objective, as described (Murtazina et al., 2011).
as §1, with “Nanoparticles were made immediately prior to each experiment.” left out

Data set [4] has as its system mouse jejunum. As to conditions: in vivo.
The test system of data set [5] is mouse ileal loops. The data set can be described thus: Basal fluid absorption in closed mouse ileal loops, nanoparticle-conjugated peptides, with or without Tenapanor. Format: in vivo. As to conditions: nanoparticle conjugated peptide 400 nM, Tenapanor (10 μM) in both incubation periods. Here is the method: (§2) All in vivo studies were performed on 8-12 week old C57B1/6N mice anesthetized with isofluorane and kept at 37° C. via heating lamps and rectal thermal probes.
(§3) Effect on basal fluid transport and effect of Tenapanor. Mice operated on as above had 3-4 cm closed ileal loops inoculated with 150-μL PBS containing 400-nM nanoparticle-CP-2 or -N3SP-1Δ7. After 4 h, the loops were drained and inoculated with 150-μL PBS. 30 min later, the animals were sacrificed and loop weight/length determined. In parallel studies, Tenapanor (10 μM) was present in both incubation periods. Similar to the BODIPY-conjugated peptide studies, the effects of nanoparticle-CP-2 or N3SP-1Δ7 (4 μM) compared to PBS alone were determined on net fluid secretion produced by inoculation of 0.1-μg CTx. The nanoparticle-peptides plus 0.1-μg CTx in 150-μL PBS were inoculated in 3-4 cm long closed ileal loops. Additional controls included loops exposed only to 150-μL PBS and those only exposed to the CTx/PBS. 4 h later, the animals were sacrificed and loop weight/cm length was determined.

For data set [6], the system named is mouse ileal loops. In words: CTx-induced fluid secretion in closed mouse ileal loops, nanoparticle-conjugated peptides. It counts as in vivo. Conditions: nanoparticle-peptide 4 μM with 0.1-μg CTx, 4 hours. Here is the method:
as §2, §3

In data set [7] the test system is NHE3. In words: NHE3 stimulation, summary statement over models and delivery systems. Format: cell-based. Conditions: using either delivery system (maleimide or nanoparticles); read-out: EC50 for stimulation of basal and second messenger inhibited NHE3.

“CP-2: control peptide, N3SP-1 lacking first ten N-terminal amino acids (rabbit NHE3 residues 578-605) (TVEASVSYLLRESASAVCLDMQSLEQRR; UniProt P26432 578-605, looked up, fragment)”: the “surface zeta potential (electrophoretic light scattering)” value in data set [1] is given as 24.6±0.5 mV. Further, in data set [1] (aqueous), the “nanoparticle diameter (DLS)” value is listed as 319±55 nm. In addition, in data set [2], the “FSK-increased intracellular cAMP” value is “similar”. Besides, in data set [3], the “NHE3 activity after FSK, % of same peptide without FSK” value came out at 77.2%. Moreover, in data set [4], the “effect on CTx-stimulated net fluid secretion (loop weight/cm)” value was “Results similar to those with N3SP-1 and CP-1”. Moreover, the “residual fluid in presence of Tenapanor, CP2 vs N3SP-1Δ7” value in data set [5] is recorded as “no difference in residual fluid”. The “effect on CTx-induced fluid in ileal loops (loop weight/length)” value in data set [6] is “did not reduce the residual loop volume”.

The EC50 is the concentration giving half of the maximal effect. For “N3SP: general name of the NHE3 stimulatory peptide (N3SP-1 and active truncations) (RPSTVEASVSYLLRESASAVCLDMQSLEQRR) [Peptide N3SP]”, in data set [7], the 50% effective concentration (EC50) was around 150 nM.

The record behind these values is patent US20260217768A1, “NANOPARTICLE-NHE3 PEPTIDE TO TREAT DIARRHEA” (The Johns Hopkins University, priority 2023, published 2026).
